Measured values: paper PMC6934184, “Selective DNA-PKcs inhibition extends the therapeutic index of localized radiotherapy and chemotherapy” (The Journal of Clinical Investigation, 2019)

Target: T1, TAOK1 (Homo sapiens, UniProt Q7L7X3)
T1 construct: purchased Thermo Fisher Scientific (Life Technologies) SelectScreen
Assay: SelectScreen LanthaScreen
Assay type: binding
Settings: read-out: % displacement
Summary of the method: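 SelectScreen broad panel; activity (Z'LYTE, Adapta) plus binding formats. ATP: Km app for CSF1R Z'LYTE; 10 for CAMK1 Adapta. Readout = % per kinase.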

T1 sequence (Q7L7X3 whole entry): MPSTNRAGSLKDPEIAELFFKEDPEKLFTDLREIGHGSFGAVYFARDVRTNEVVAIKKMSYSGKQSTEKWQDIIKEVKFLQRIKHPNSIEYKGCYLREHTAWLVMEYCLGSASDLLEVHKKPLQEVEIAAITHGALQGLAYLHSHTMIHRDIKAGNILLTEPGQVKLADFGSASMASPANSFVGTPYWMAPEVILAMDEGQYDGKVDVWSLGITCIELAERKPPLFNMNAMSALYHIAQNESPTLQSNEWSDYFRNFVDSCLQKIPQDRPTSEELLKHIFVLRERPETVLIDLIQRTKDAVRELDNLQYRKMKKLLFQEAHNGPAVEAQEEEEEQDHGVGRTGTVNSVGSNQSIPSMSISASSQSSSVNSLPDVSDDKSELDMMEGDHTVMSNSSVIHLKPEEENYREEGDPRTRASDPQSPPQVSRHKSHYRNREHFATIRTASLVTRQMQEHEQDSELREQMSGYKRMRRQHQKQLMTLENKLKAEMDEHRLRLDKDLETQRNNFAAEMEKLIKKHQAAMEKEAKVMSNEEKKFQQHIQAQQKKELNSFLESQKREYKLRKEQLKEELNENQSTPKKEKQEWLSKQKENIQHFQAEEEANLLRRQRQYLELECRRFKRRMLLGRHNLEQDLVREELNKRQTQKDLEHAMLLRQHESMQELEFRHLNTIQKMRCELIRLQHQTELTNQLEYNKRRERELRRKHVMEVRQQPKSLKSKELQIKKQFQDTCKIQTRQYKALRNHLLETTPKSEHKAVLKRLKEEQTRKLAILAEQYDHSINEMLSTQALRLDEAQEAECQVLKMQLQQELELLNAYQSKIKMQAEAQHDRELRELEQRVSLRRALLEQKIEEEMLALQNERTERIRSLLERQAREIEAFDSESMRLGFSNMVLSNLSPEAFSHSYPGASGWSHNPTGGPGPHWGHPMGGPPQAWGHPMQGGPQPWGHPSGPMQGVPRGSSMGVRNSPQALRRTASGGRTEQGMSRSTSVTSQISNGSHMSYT

CN(C(=O)CN1CCOCC1)c1ccc2sc3c(-c4cccc5c(=O)cc(N6CC7CCC(C6)O7)oc45)cccc3c2c1 [NU5455]
inhibition at 1 µM: 3.7%
